Where a SMILES comes first, the peptide text is derived from it. [ ]: non-standard residue; d: D form. dPip = O=C(O)[C@H]1CCCCN1
Experiments:
[1] = molecular target: Prothrombin (Homo sapiens) (UniProt P00734); experiment: Association constant for thrombin
[2] = Ratio of association constant of thrombin and plasmin
[3] = Ratio of association constant of thrombin and tissue-type plasminogen activator
[4] = molecular target: Thrombin & trypsin (Homo sapiens) (UniProt P00734+P07477+P07478+P35030); experiment: Ratio of association constant of thrombin and trypsin; format: protein assay

Work on `CC(C)CCN(CC(=O)N[C@H](C=O)CCCN=C(N)N)C(=O)[C@H]1CCCCN1` yielded a K ass [1] of 16 L/µM, a Ratio [2] of 270 and a Ratio [3] of 4000. The Ratio [4] was 2.7.
For `N=C(N)NCCC[C@@H](C=O)NC(=O)CN(Cc1ccccc1)C(=O)[C@H]1CCCCN1`, the K ass [1] was 10 L/µM, the Ratio [2] was 77 and the Ratio [3] was 1000. For the same molecule, the Ratio [4] was 1.
In the case of `N=C(N)NCCC[C@@H](C=O)NC(=O)CN(C(=O)[C@H]1CCCCN1)c1ccccc1`, the K ass [1] is reported as 16 L/µM, the Ratio [2] is reported as 400 and the Ratio [3] is reported as 4000. It also gave a Ratio [4] of 15.
`CC(C)N(CC(=O)N[C@H](C=O)CCCN=C(N)N)C(=O)[C@H]1CCCCN1` showed a K ass [1] of 10 L/µM, a Ratio [2] of 10000 and a Ratio [3] of 10000. For the same molecule, the Ratio [4] was 20.
With `CCN(CC(=O)N[C@H](C=O)CCCN=C(N)N)C(=O)[C@H]1CCCCN1` the K ass [1] was 33 L/µM, the Ratio [2] was 3300 and the Ratio [3] was 6600. For the same molecule, the Ratio [4] was 25.
With `CCCN(CC(=O)N[C@H](C=O)CCCN=C(N)N)C(=O)[C@H]1CCCCN1` the K ass [1] was 34 L/µM, the Ratio [2] was 680 and the Ratio [3] was 8500. It also gave a Ratio [4] of 14.
`N=C(N)NCCC[C@@H](C=O)NC(=O)CN(CCCc1ccccc1)C(=O)[C@H]1CCCCN1` showed a K ass [1] of 24 L/µM, a Ratio [2] of 200 and a Ratio [3] of 4000. It also gave a Ratio [4] of 4.
For `N=C(N)NCCC[C@@H](C=O)NC(=O)CN(CCC1CCCCC1)C(=O)[C@H]1CCCCN1`, the K ass [1] was 5.4 L/µM, the Ratio [2] was 16 and the Ratio [3] was 770. For the same molecule, the Ratio [4] was 0.9.
Molecule `CN(CC(=O)N[C@H](C=O)CCCN=C(N)N)C(=O)[C@H]1CCCCN1` has a K ass [1] of 22 L/µM, a Ratio [2] of 730 and a Ratio [3] of 5500. It also gave a Ratio [4] of 24.
`N=C(N)NCCC[C@@H](C=O)NC(=O)CN(CCc1ccccc1)C(=O)[C@H]1CCCCN1` showed a K ass [1] of 87 L/µM, a Ratio [2] of 200 and a Ratio [3] of 14500. The Ratio [4] was 32.
`CC(C)CN(CC(=O)N[C@H](C=O)CCCN=C(N)N)C(=O)[C@H]1CCCCN1` showed a K ass [1] of 24 L/µM, a Ratio [2] of 480 and a Ratio [3] of 24000. The Ratio [4] was 15.
Work on `N=C(N)NCCC[C@@H](C=O)NC(=O)[C@@H]1CCCN1C(=O)[C@H]1CCCCN1` (H-[dPip]-Pro-Arg-aldehyde) yielded a K ass [1] of 200 L/µM, a Ratio [2] of 220 and a Ratio [3] of 6700. For the same molecule, the Ratio [4] was 3.3.

Reference: ChEMBL document CHEMBL1128061, “N-substituted glycines as replacements for proline in tripeptide aldehyde thrombin inhibitors” (Bioorg Med Chem Lett, 1995)
